Test results reported in US12466812B2, “Pyridinyltriazine derivative having protein kinase inhibitory activity, and pharmaceutical composition for preventing, ameliorating, or treating cancer comprising same” (KOREA INSTITUTE OF SCIENCE AND TECHNOLOGY, priority 2019, dated 2025).

Legend:
[1] = tested on: KMS-11 (myeloma cell line); test: Pan-FGFR mutant cellular activity; assay type: cell-based; details: Homo sapiens, Table 4
Protocol: (§1) The inhibitory activity against pan-FGFR mutants of the compounds synthesized in Examples 1, 8, 13, 22, and 24 was measured, the inhibitory activity on each of enzymatic activity and cellular activity was evaluated, and the results are shown in Tables 3 and 4 below.

[2] = tested on: UMUC3 (bladder cancer cell line); test: Pan-FGFR mutant cellular activity; assay type: cell-based; details: Homo sapiens, Table 4
Protocol: as §1

[3] = tested on: J82 (bladder cancer cell line); test: Pan-FGFR mutant cellular activity; assay type: cell-based; details: Table 4
Protocol: as §1

AN3-CA = test: Pan-FGFR mutant cellular activity; assay type: cell-based; details: Homo sapiens, mutant cell, Table 4, read-out: GI50, AN3-CA (breast cancer cell line)
Protocol: as §1

[4] = tested on: UMUC3, bladder cancer cell line overexpressing FGFR1 (xenograft); test: In-vivo efficacy in animal model transplanted with bladder cancer cell line; details: UMUC3 xenograft in BALB/C nude mice, oral 20 mpk once a day, compared to control drug BGJ398
Excerpt: Specifically, 6-7 week old BALB/C nude mice xenografted with UMUC3, which was a bladder cancer cell line overexpressing FGFR1, were used as an animal model. BGJ398 (manufactured by Novartis), a known FGFR inhibitor, was used as a control drug. A mixed solution (pH=4) of 5% N-methylpyrrolidinone (NMP), 6% Solutol, 20% polyethylene glycol (PEG400), and 69′% distilled water was used as a vehicle. At this time, the drug was orally administered at a concentration of 20 mpk (mg/kg) once a day.

CYP1A2 = molecular target: T1, CYP1A2 (Homo sapiens, UniProt P05177); test: Inhibitory activity against CYP metabolic enzyme; assay type: in vitro ADME
T1 sequence (P05177 1-516): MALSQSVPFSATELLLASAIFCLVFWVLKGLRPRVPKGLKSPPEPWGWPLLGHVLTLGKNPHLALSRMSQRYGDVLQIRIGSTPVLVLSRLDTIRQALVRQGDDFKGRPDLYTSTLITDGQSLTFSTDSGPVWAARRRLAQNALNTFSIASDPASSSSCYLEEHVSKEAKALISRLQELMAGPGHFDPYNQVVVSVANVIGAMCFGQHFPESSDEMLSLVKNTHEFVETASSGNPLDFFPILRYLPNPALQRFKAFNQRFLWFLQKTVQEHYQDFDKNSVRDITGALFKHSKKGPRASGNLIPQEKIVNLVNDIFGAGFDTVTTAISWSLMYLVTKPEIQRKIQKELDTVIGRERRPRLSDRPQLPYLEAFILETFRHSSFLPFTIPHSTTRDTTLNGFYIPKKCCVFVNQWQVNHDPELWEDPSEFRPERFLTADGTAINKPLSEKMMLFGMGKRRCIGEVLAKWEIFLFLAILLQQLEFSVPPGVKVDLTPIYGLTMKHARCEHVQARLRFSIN
Protocol: (§2) In order to determine whether or not there is a possibility that the compounds synthesized in Examples 1, 22, and 24 of the present invention can cause side effects of drug interaction, the rate (%) of inhibition against 5 major metabolic enzymes (CYP1A2, CYP2C9, CYP2C19, CYP2D6, and CYP3A4) among CYPs (cytochrome P450), which are enzymes involved in oxidative metabolism of drugs, was measured. […] That is, it can be seen that the compound of the present invention has a low possibility of causing side effects of drug interaction.

CYP2D6 = CYP2D6 (Homo sapiens, UniProt P10635); test: Inhibitory activity against CYP metabolic enzyme; assay type: in vitro ADME
Protocol: as §2

CYP2C19 = CYP2C19 (Homo sapiens, UniProt P33261); test: Inhibitory activity against CYP metabolic enzyme; assay type: in vitro ADME
Protocol: as §2

CYP3A4 = CYP3A4 (Homo sapiens, UniProt P08684); test: Inhibitory activity against CYP metabolic enzyme; assay type: in vitro ADME
Protocol: as §2

CYP2C9 = CYP2C9 (Homo sapiens, UniProt P11712); test: Inhibitory activity against CYP metabolic enzyme; assay type: in vitro ADME
Protocol: as §2

TAO2 = TAO2 (Homo sapiens, UniProt Q9UL54); test: Kinase panel biochemical assay; details: single concentration of 1 μM; panel of 369 kinases; read-out: kinase activity inhibited (%), TAO2
Protocol: (§3) In order to measure the inhibitory activity (%) against protein kinases of the compounds of the present invention, biochemical assays were performed on a full kinase panel composed of 369 kinases.

FGFR3 = FGFR3 (Homo sapiens, UniProt P22607); test: Kinase panel biochemical assay; details: single concentration of 1 μM; panel of 369 kinases; read-out: kinase activity inhibited (%), FGFR3
Protocol: as §3

FGFR2 = FGFR2 (Homo sapiens, UniProt P21802); test: Kinase panel biochemical assay; details: single concentration of 1 μM; panel of 369 kinases; read-out: kinase activity inhibited (%), FGFR2
Protocol: as §3

LYN = LYN (Homo sapiens, UniProt P07948); test: Kinase panel biochemical assay; details: single concentration of 1 μM; panel of 369 kinases; read-out: kinase activity inhibited (%), LYN
Protocol: as §3

CDK6 = CDK6 (Homo sapiens, UniProt Q00534); test: Kinase panel biochemical assay; details: single concentration of 1 μM; panel of 369 kinases; read-out: kinase activity inhibited (%), CDK6
Protocol: as §3

PCTAIRE2 = PCTAIRE2 (Homo sapiens, UniProt Q00537); test: Kinase panel biochemical assay; details: single concentration of 1 μM; panel of 369 kinases; read-out: kinase activity inhibited (%), PCTAIRE2
Protocol: as §3

ROS = ROS (Homo sapiens, UniProt P08922); test: Kinase panel biochemical assay; details: single concentration of 1 μM; panel of 369 kinases; read-out: kinase activity inhibited (%), ROS
Protocol: as §3

FGFR3 mutant (V555M) = FGFR3 mutant (V555M) (Homo sapiens, UniProt P22607, V555M); test: Pan-FGFR mutant enzymatic activity; assay type: biochemical; details: mutant enzyme
Protocol: as §1

FGFR3 mutant (K650M) = FGFR3 mutant (K650M) (Homo sapiens, UniProt P22607, K650M); test: Pan-FGFR mutant enzymatic activity; assay type: biochemical; details: mutant enzyme
Protocol: as §1

FGFR3 mutant (K650E) = FGFR3 mutant (K650E) (Homo sapiens, UniProt P22607, K650E); test: Pan-FGFR mutant enzymatic activity; assay type: biochemical; details: mutant enzyme
Protocol: as §1

FGFR2 mutant (V564F) = FGFR2 mutant (V564F) (Homo sapiens, UniProt P21802, V564F); test: Pan-FGFR mutant enzymatic activity; assay type: biochemical; details: mutant enzyme
Protocol: as §1

FGFR2 mutant (N549H) = FGFR2 mutant (N549H) (Homo sapiens, UniProt P21802, N549H); test: Pan-FGFR mutant enzymatic activity; assay type: biochemical; details: mutant enzyme
Protocol: as §1

CYP2C9, sequence (P11712 whole entry): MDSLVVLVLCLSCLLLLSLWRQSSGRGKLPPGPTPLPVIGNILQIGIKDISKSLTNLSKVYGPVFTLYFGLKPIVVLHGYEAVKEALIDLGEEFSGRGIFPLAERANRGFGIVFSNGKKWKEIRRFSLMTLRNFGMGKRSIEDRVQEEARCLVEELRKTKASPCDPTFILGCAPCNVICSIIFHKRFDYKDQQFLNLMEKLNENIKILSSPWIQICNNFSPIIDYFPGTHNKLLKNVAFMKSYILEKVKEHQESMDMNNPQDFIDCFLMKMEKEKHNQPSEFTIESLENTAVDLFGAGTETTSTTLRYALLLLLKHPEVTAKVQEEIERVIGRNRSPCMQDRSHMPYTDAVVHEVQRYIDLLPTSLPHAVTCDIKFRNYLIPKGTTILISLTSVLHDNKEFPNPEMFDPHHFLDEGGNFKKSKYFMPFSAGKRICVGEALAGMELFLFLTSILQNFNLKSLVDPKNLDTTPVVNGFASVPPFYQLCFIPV
TAO2, sequence (Q9UL54 whole entry): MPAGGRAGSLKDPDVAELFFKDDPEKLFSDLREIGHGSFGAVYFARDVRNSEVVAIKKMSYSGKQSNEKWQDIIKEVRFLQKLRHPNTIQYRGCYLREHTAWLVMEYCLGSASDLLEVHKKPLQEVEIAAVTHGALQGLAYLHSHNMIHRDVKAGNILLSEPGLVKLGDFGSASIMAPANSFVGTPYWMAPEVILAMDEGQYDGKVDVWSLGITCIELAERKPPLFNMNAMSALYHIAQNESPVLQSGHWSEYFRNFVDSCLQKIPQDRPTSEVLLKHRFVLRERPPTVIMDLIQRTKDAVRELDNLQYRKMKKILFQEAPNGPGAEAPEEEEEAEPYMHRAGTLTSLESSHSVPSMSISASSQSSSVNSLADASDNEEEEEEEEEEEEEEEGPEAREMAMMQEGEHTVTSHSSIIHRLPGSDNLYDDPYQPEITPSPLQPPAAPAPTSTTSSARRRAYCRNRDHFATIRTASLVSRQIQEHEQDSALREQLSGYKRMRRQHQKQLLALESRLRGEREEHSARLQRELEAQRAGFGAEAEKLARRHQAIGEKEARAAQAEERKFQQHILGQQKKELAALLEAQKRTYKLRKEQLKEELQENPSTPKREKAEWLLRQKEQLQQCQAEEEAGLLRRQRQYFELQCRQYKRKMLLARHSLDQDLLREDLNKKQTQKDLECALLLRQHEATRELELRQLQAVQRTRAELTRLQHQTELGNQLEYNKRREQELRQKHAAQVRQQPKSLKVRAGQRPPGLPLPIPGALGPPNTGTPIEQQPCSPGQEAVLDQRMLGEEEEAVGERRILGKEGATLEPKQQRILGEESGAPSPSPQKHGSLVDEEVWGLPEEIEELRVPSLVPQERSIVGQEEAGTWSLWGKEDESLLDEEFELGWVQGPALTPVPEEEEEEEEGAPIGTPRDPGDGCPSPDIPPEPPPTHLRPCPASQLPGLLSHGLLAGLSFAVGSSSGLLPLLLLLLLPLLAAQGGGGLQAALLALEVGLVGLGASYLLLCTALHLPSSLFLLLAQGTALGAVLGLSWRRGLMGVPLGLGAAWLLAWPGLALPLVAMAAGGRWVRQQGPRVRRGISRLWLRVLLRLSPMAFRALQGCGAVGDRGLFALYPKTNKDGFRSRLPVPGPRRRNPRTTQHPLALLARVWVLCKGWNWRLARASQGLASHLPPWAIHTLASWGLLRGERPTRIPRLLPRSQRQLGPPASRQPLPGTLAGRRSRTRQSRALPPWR
CDK6, sequence (Q00534 whole entry): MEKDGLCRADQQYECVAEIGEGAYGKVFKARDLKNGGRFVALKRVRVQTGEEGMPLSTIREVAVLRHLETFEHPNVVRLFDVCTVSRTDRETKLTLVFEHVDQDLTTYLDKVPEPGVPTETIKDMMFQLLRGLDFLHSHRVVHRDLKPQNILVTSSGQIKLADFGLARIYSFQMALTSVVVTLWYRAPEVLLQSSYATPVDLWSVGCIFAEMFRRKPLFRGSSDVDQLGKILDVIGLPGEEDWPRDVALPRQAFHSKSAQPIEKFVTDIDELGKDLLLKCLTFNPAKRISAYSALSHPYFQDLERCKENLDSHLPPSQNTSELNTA
CDK6, sequence (P30281 whole entry partner): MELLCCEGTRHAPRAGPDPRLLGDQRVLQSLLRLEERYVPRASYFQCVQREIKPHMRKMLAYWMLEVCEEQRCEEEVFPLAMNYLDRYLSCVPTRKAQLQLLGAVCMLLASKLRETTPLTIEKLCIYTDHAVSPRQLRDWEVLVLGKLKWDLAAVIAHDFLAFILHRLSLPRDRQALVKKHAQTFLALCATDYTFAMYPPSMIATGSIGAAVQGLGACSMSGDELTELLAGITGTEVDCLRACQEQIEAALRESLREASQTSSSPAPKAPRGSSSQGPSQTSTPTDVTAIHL
CYP2C19, sequence (P33261 whole entry): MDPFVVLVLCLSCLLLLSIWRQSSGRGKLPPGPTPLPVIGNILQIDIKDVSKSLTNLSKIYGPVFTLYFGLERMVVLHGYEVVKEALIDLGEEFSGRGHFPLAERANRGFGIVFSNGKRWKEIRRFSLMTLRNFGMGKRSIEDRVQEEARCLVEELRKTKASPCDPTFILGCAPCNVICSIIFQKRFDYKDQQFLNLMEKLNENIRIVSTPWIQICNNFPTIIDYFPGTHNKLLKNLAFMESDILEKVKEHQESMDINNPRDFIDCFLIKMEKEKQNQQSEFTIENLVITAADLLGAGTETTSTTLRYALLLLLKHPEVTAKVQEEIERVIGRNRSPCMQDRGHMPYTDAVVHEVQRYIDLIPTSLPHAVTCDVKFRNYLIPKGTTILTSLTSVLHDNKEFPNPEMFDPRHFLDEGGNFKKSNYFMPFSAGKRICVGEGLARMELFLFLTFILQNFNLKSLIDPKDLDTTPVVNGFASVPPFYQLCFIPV
CYP3A4, sequence (P08684 whole entry): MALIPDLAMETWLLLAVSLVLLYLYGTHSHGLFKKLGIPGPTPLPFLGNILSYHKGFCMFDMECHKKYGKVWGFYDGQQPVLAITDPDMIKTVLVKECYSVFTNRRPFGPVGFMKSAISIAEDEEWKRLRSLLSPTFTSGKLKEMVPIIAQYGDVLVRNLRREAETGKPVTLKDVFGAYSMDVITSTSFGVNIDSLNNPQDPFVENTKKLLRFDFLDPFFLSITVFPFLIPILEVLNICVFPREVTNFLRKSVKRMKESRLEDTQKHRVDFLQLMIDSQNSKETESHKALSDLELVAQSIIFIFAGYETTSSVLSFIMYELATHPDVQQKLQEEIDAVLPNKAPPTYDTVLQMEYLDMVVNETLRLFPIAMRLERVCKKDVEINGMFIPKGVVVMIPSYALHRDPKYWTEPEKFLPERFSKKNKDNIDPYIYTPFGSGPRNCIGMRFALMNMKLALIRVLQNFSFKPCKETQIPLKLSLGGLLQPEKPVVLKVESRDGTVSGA
FGFR2 mutant (V564F), sequence (P21802 22-821 V564F): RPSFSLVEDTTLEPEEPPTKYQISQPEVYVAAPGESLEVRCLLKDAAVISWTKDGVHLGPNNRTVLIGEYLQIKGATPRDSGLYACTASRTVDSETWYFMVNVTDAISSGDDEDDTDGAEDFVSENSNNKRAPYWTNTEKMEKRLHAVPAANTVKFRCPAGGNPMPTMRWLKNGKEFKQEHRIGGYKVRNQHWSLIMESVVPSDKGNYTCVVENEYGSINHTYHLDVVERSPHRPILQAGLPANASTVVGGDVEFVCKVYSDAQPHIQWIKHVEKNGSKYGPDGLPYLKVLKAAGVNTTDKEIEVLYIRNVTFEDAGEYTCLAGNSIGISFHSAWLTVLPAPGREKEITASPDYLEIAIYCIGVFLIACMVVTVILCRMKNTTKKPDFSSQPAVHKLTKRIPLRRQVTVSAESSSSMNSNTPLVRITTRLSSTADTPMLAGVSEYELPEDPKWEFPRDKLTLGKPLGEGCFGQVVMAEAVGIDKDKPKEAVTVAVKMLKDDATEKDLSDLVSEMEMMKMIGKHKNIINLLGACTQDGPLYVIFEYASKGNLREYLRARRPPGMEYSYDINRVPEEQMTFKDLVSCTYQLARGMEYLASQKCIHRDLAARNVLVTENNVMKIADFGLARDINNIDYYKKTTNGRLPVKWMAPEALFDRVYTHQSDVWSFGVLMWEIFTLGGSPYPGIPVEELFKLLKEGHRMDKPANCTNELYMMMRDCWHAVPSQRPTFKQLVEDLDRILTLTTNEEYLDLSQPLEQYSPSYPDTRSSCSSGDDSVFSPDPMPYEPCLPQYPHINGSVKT
FGFR3 mutant (K650M), sequence (P22607 23-806 K650M): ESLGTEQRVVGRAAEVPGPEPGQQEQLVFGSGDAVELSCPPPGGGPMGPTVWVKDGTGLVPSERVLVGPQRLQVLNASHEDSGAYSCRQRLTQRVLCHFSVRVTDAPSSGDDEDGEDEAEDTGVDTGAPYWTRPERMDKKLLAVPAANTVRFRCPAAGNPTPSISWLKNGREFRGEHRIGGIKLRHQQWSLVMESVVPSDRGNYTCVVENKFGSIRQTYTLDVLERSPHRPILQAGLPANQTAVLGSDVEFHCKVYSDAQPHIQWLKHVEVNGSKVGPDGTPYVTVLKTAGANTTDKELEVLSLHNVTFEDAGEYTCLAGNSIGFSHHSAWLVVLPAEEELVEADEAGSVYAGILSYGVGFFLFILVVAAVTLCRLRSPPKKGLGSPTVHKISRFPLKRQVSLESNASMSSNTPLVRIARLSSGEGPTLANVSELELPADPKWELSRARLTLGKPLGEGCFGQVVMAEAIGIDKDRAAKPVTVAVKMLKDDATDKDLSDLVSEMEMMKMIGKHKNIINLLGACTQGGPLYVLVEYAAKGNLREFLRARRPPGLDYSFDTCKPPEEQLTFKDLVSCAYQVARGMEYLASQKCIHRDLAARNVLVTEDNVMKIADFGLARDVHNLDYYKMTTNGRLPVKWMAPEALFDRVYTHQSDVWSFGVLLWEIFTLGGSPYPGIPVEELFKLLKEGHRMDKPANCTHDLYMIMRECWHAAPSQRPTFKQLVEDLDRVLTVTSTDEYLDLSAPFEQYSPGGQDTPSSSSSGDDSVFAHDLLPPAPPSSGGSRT
FGFR3, sequence (P22607 23-806): as the sequence (P22607 23-806 K650M) above, with M628K counted along it
FGFR2 mutant (N549H), sequence (P21802 22-821 N549H): as the sequence (P21802 22-821 V564F) above, with N528H, F543V counted along it

**Q.** What does the source list for `CCN1CCN(c2ccc(Nc3ncnc(-c4cccnc4Nc4c(Cl)c(OC)cc(OC)c4Cl)n3)cc2)CC1` [Example 1]?
**A.** GI50 [1]: < 1000 nM; GI50 [2]: 1000 to 10000 nM; GI50 [3]: 1000 to 10000 nM; GI50 (AN3-CA): < 1000 nM; tumor volume reduction effect [4]: excellent tumor volume reduction effect; rate (%) of inhibition, CYP1A2 (CYP1A2): 71.4%; rate (%) of inhibition, CYP2D6 (CYP2D6): 80.9%; rate (%) of inhibition, CYP2C19 (CYP2C19): 26.7%; rate (%) of inhibition, CYP3A4 (CYP3A4): 17.0%; rate (%) of inhibition, CYP2C9 (CYP2C9): 70.2%; inhibition at 1 µM (TAO2): ≥ 90%; inhibition at 1 µM (FGFR3): ≥ 90%; inhibition at 1 µM (FGFR2): ≥ 90%; inhibition at 1 µM (LYN): ≥ 90%; inhibition at 1 µM (CDK6): ≥ 90%; inhibition at 1 µM (PCTAIRE2): ≥ 90%; inhibition at 1 µM (ROS): ≥ 90%; IC50 (FGFR3 mutant (V555M)): 100 to 1000 nM; IC50 (FGFR3 mutant (K650M)): < 100 nM; IC50 (FGFR3 mutant (K650E)): < 100 nM; IC50 (FGFR2 mutant (V564F)): 100 to 1000 nM; IC50 (FGFR2 mutant (N549H)): < 100 nM
